Reference: patent publication US4365989A, “2-Thiocyanomethylthio-4,4-dialkyl-5-substituted-thiazoline fungicides” (Chevron Research Company, priority 1982, dated 1982)

How the values were obtained:
[1] = test system: Pigweed (Amaranthus retraflexus); assay: Post-emergent herbicidal test, Pigweed; assay type: in vivo; conditions: 504 h, post-emergence, 33 micrograms/cm^2, 3 weeks
[2] = test system: Lambsquarter (Chenopodium album); assay: Post-emergent herbicidal test, Lambsquarter; assay type: in vivo; conditions: 504 h, post-emergence, 33 micrograms/cm^2, 3 weeks, read-out: Herbicidal Activity Post-Emergence % Control L'Qtr.
[3] = test system: Botrytis Cineria; assay: Mycelial inhibition, Botrytis; assay type: cell-based; conditions: 24 hours, relative to standard DIFOLATAN
Procedure: (§1) A number of the compounds of the present invention were evaluated for in-vitro fungicidal effectiveness by means of a mycelial inhibition test. This test is designed to measure the fungitoxic activity of fungicidal chemicals in terms of their degree of inhibition of mycelium growth. Each compound to be tested was dissolved in acetone to 500 ppm concentration. Paper strips were infused with the particular mycelium growth by covering the paper with a potato dextrose broth culture of mycelial suspension. The papers were then placed on potato dextrose agar plates and sprayed by means of a microsprayer with the fungicidal solution. The treated paper strips were incubated at 25° C. and the data is taken after 24 hours. Fungicidal activities are measured by a zone of inhibited mycelial growth from the center of the paper strip. The effectiveness of the compounds tested for fungicidal activity is reported in Table IIa for those compounds which were effective in inhibiting mycelial growth. The activity is reported in terms of [formula]

[4] = test system: Alternaria solani conidia; assay: Tomato Early Blight control; assay type: in vivo; conditions: 250 ppm; tomato Bonny Best seedlings
Procedure: Compounds of the invention were tested for the control of the tomato Early Blight organism, Alternaria solani conidia. Tomato (variety Bonny Best) seedlings of 6 to 7 weeks old were used. The tomato plants were sprayed with a 250 ppm solution of the test compound in an acetone-and-water solution containing a small amount of a nonionic emulsifier. The sprayed plants were inoculated one day later with the organism, placed in the environmental chamber and incubated at 66° to 68° F. and 100% relative humidity for 24 hours. Following the incubation, the plants were maintained in a greenhouse for about 12 days. Percent diseases control was based on the percent disease development on untreated check plants.

[5] = test system: Crabgrass (Digitaria sanguinalis); assay: Pre-emergent herbicidal test, Crabgrass; assay type: in vivo; conditions: 504 h, pre-emergence, 33 micrograms/cm^2, 3 weeks
Procedure: (§2) An acetone solution of the test compound was prepared by mixing 750 mg of the compound, 220 mg of a nonionic surfactant and 25 ml of acetone. This solution was added to approximately 125 ml of water containing 156 mg of surfactant.
(§3) Seeds of the test vegetation were planted in a pot of […] and the test solution was sprayed uniformly onto the soil surface at a dose of 33 micrograms/cm^2. The pot was watered and placed in a greenhouse. […] At the end of this period, the herbicidal effectiveness of the compound was rated based on the physiological observations. A 0-to-100 scale was used, 0 representing no phytotoxicity, 100 representing complete kill.

[6] = test system: Mustard (Brassica arvensis); assay: Pre-emergent herbicidal test, Mustard; assay type: in vivo; conditions: 504 h, pre-emergence, 33 micrograms/cm^2, 3 weeks
Procedure: as §2, §3

[7] = test system: Fusarium Moniliforme; assay: Mycelial inhibition, Fusarium; assay type: cell-based; conditions: Fusarium verticillioides, 24 hours, relative to standard DIFOLATAN
Procedure: as §1

[8] = test system: Lambsquarter (Chenopodium album); assay: Pre-emergent herbicidal test, Lambsquarter; assay type: in vivo; conditions: 504 h, pre-emergence, 33 micrograms/cm^2, 3 weeks, read-out: Herbicidal Activity Pre-Emergence % Control L'Qtr.
Procedure: as §2, §3

[9] = test system: Soybean; assay: Post-emergent herbicidal test, Soybean; assay type: in vivo; conditions: Glycine max, 504 h; post-emergence; 33 micrograms/cm^2; 3 weeks; read-out: Herbicidal Activity Post-Emergence % Control Soybean
[10] = test system: Watergrass (Ethinochloa crusgalli); assay: Post-emergent herbicidal test, Watergrass; assay type: in vivo; conditions: 504 h; post-emergence; 33 micrograms/cm^2; 3 weeks
[11] = test system: Pigweed (Amaranthus retraflexus); assay: Pre-emergent herbicidal test, Pigweed; assay type: in vivo; conditions: 504 h, pre-emergence, 33 micrograms/cm^2, 3 weeks
Procedure: as §2, §3

[12] = test system: Plasmopara viticola; assay: Grape Downy Mildew control, detached grape leaves; assay type: in vivo; conditions: in Vitis vinifera, Vitis vinifera Emperor detached leaves, read-out: % Control Grape D.M.
Procedure: The compounds of the invention were tested for the control of the grape downy mildew organism Plasmopara viticola. Detached leaves, between 70 and 85 mm in diameter, of 7-week old Vitis vinifera cultivar Emperor grape seedlings were used as hosts. The leaves were sprayed with a 250 ppm solution of the test compound in acetone. The sprayed leaves were dried, inoculated with a spore suspension of the organism, placed in a humid environmental chamber and incubated at 66° to 68° F. and about 100% relative humidity. After incubation for two days, the plants were then held in a greenhouse seven to nine days; then the amount of disease control was determined. The percent disease control provided by a given gest compound was based on the percent disease reduction relative to untreated check plants.

[13] = test system: Elodea canadensis; assay: Aquatic weeds control, Elodea; assay type: in vivo; conditions: 7 to 10 days, read-out: Algicidal Activity % Control Elodea
Procedure: Representative compounds of the invention were tested as aquatic herbicides and algicides by the following method. The weed test species were Lemna minor, Elodea canadensis and the algae used was Spirulina maxima.
An acetone solution of the test compound and a small amount of an alkylarylpolyoxyethylene glycol-containing surfactant was prepared. This solution was mixed with a nutrient solution in quantity sufficient to give a concentration of 2 ppm. Eight oz. plastic cups were filled with 150 ml of this solution. A sample of the test, Lemna and Elodea, was added together to each cup. Forty ml of Spirulina culture with the 2 ppm treatment was placed in 11/2 oz plastic cups (#4 glass vials used after June 9, 1980). The containers were then placed in an illuminated environment maintained at a temperature of about 20° C. for incubation. The containers were observed periodically for growth (as compared to an untreated check). The effectiveness of the test compound was determined based on a final observation of growth after 7 to 10 days. The results of the test on a 0-to-100 basis--0 indicating no effectiveness and 100 indicating complete effectiveness--are reported in Table IV.

Compound | pest or weed control at 33 µg/cm2 [1] [%] | pest or weed control at 33 µg/cm2 [2] [%] | inhibition at 500 ppm [3] [%] | % Control Tom. E. Bl. [4] [%] | pest or weed control at 33 µg/cm2 [5] [%] | pest or weed control at 33 µg/cm2 [6] [%] | inhibition at 500 ppm [7] [%] | pest or weed control at 33 µg/cm2 [8] [%] | plant injury at 33 µg/cm2 [9] [%] | pest or weed control at 33 µg/cm2 [10] [%] | pest or weed control at 33 µg/cm2 [11] [%] | pest or weed control at 250 ppm [12] [%] | activity at 2 ppm [13] [%]
CC1(C)N=C(SCSC#N)SC1=CSc1ccc(Cl)cc1 [Compound 1, 2-thiocyanomethylthio-4,4-dimethyl-5-(4-chlorophenylthio)methylenethiazoline] | 0 | 0 | 0 | 47 | 0 | 0 | 0 | 0 | 0 | 0 | 0 | 100 | 0
C=C1SC(SCSC#N)=NC1(C)C [Compound 7, 2-Thiocyanomethylthio-4,4-dimethyl-5-methylenethiazoline] | 35 | 55 | 82 | 71 | 0 | 0 | 32 | 60 | 0 | 22 | 50 | 50 | 85
CC1(C)N=C(SCSC#N)SC1=C(Cl)Cl [Compound 2, 2-thiocyanomethylthio-4,4-dimethyl-5-dichloromethylenethiazoline] | 55 | 40 | 32 | 67 | 0 | 0 | 29 | 0 | 10 | 45 | 0 | 88 | 70
CCC1(CC)N=C(SCSC#N)SC1=CBr [Compound 5, 2-thiocyanomethylthio-4,4-diethyl-5-bromo-methylenethiazoline] | 35 | 33 | 0 | 0 | 0 | 0 | 0 | 0 | 20 | 58 | 0 | 100 | 55
C=C1SC(SCSC#N)=NC12CCCCC2 [Compound 8] | 50 | 40 | 26 | 0 | 0 | 0 | 0 | 0 | 33 | 38 | 0 | 100 | 80
C=C1SC(SCSC#N)=NC1(CC)CC [Compound 6, 2-thiocyanomethylthio-4,4-diethyl-5-methylenethiazoline] | 35 | 55 | 30 | 0 | 0 | 58 | 31 | 73 | 15 | 35 | 73 | 0 | 0
